Data published in PubChem BioAssay AID216 (DTP/NCI, 2004).
Several values for one entry are separate records, joined by “and”; a condition that tells them apart may be missing. Identical values can stand only once. Toxic doses and inconclusive results are not listed.

Test system: BDF1 mice, P288 leukemia ip, survival T/C
Assay: NCI In Vivo Anticancer Drug Screen. Data for tumor model P288 Lymphocytic Leukemia (intraperitoneal) in B6D2F1 (BDF1) mice
Details: endpoint: survival time, mean or median, higher = longer survival
Method: The antitumor activity of compounds was measured in mice bearing transplantable tumors. Survival or tumor size were measured and the results are expressed as the measurement made in the treated group (T) divided by the measurement made in the vehicle treated control group (C). The tumor model used in this assay is P288 Lymphocytic Leukemia (intraperitoneal) in B6D2F1 (BDF1) mice

[1] = dose: 200.0 mg/kg/injection, schedule: Q01DX010 (ip), vehicle: saline
[2] = dose: 800.0 mg/kg/injection, schedule: Q01DX010 (ip), vehicle: saline
[3] = dose: 100.0 mg/kg/injection, schedule: Q01DX010 (ip), vehicle: saline
[4] = dose: 62.5 mg/kg/injection, schedule: Q01DX010 (ip), vehicle: saline
[5] = dose: 250.0 mg/kg/injection, schedule: Q01DX010 (ip), vehicle: saline
[6] = dose: 25.0 mg/kg/injection, schedule: Q01DX010 (ip), vehicle: saline
[7] = dose: 10.0 mg/kg/injection, schedule: Q01DX010 (ip), vehicle: saline
[8] = dose: 20.0 mg/kg/injection, schedule: Q01DX010 (ip), vehicle: saline

For `O=c1cnn(C2OC(CO)C(O)C2O)c(=O)[nH]1` (stereo not drawn), the T/C (dose: 15.62 mg/kg/injection, schedule: Q01DX Z (ip), vehicle: water) was 101 % of control, the T/C (dose: 31.25 mg/kg/injection, schedule: Q01DX Z (ip), vehicle: water) was 101 % of control and the T/C (dose: 62.5 mg/kg/injection, schedule: Q01DX Z (ip), vehicle: water) was 104 % of control. For the same compound, the T/C (dose: 125.0 mg/kg/injection, schedule: Q01DX Z (ip), vehicle: water) was 113 % of control and 95 % of control, the T/C [1] was 111 % of control and 112 % of control and the T/C (dose: 250.0 mg/kg/injection, schedule: Q01DX Z (ip), vehicle: water) was 103 % of control and 123 % of control. The T/C (dose: 400.0 mg/kg/injection, schedule: Q01DX010 (ip), vehicle: saline) was 118 % of control, the T/C (dose: 500.0 mg/kg/injection, schedule: Q01DX Z (ip), vehicle: water) was 94 % of control and the T/C [2] was 122 % of control. The T/C (dose: 1000.0 mg/kg/injection, schedule: Q01DX Z (ip), vehicle: water) was 103 % of control and the T/C (dose: 1600.0 mg/kg/injection, schedule: Q01DX010 (ip), vehicle: saline) was 112 % of control and 94 % of control.

In the case of `CS(=O)(=O)OCC(O)C(O)COS(C)(=O)=O` (stereo not drawn), the T/C (dose: 94.0 mg/kg/injection, schedule: Q01DX Z (ip), vehicle: saline) is reported as 111 % of control, the T/C [3] is reported as 105 % of control and the T/C (dose: 187.5 mg/kg/injection, schedule: Q01DX Z (ip), vehicle: saline) is reported as 105 % of control. For the same compound, the T/C [1] was 94 % of control, the T/C (dose: 375.0 mg/kg/injection, schedule: Q01DX Z (ip), vehicle: saline) was 117 % of control and the T/C (dose: 750.0 mg/kg/injection, schedule: Q01DX Z (ip), vehicle: saline) was 111 % of control. For the same compound, the T/C [2] was 105 % of control.

In the case of `CC(=O)Nc1ccc(/C=N/Nc2ccc([N+](=O)[O-])cn2)cc1`, the T/C (dose: 31.3 mg/kg/injection, schedule: Q01DX010 (ip), vehicle: saline) is reported as 89 % of control, the T/C [4] is reported as 89 % of control and the T/C [5] is reported as 89 % of control.

For `N=C(N)c1ccc(Nc2ccc(C(=N)N)cc2)cc1`, the T/C (dose: 1.6 mg/kg/injection, schedule: Q01DX Z (ip), vehicle: methylcellulose (MC)) was 86 % of control, the T/C (dose: 3.0 mg/kg/injection, schedule: Q01DX010 (ip), vehicle: saline) was 100 % of control and the T/C (dose: 6.0 mg/kg/injection, schedule: Q01DX010 (ip), vehicle: saline) was 106 % of control. The T/C (dose: 6.25 mg/kg/injection, schedule: Q01DX Z (ip), vehicle: methylcellulose (MC)) was 88 % of control, the T/C (dose: 6.3 mg/kg/injection, schedule: Q01DX Z (ip), vehicle: methylcellulose (MC)) was 90 % of control and the T/C (dose: 12.0 mg/kg/injection, schedule: Q01DX010 (ip), vehicle: saline) was 100 % of control. The T/C (dose: 12.5 mg/kg/injection, schedule: Q01DX Z (ip), vehicle: methylcellulose (MC)) was 115 % of control, the T/C (dose: 24.0 mg/kg/injection, schedule: Q01DX010 (ip), vehicle: saline) was 87 % of control and the T/C (dose: 25.0 mg/kg/injection, schedule: Q01DX Z (ip), vehicle: methylcellulose (MC)) was 87 % of control.

`c1ccc(CCSc2ncnc3nc[nH]c23)cc1` was tested, and the T/C [4] was 100 % of control, the T/C (dose: 125.0 mg/kg/injection, schedule: Q01DX010 (ip), vehicle: saline) was 100 % of control and the T/C [5] was 122 % of control and 100 % of control. The T/C (dose: 500.0 mg/kg/injection, schedule: Q01DX010 (ip), vehicle: saline) was 105 % of control and 122 % of control.

In the case of `C[C@]12CCC(=O)C[C@H]1CC[C@@H]1[C@@H]2CC[C@@]2(C)[C@H]1CC[C@]2(C)O`, the T/C (dose: 62.5 mg/kg/injection, schedule: Q01DX Z (sc), vehicle: steriod suspending solution) is reported as 97 % of control, the T/C (dose: 125.0 mg/kg/injection, schedule: Q01DX Z (sc), vehicle: steriod suspending solution) is reported as 98 % of control and the T/C (dose: 250.0 mg/kg/injection, schedule: Q01DX Z (sc), vehicle: steriod suspending solution) is reported as 109 % of control and 92 % of control. For the same compound, the T/C (dose: 500.0 mg/kg/injection, schedule: Q01DX Z (sc), vehicle: steriod suspending solution) was 104 % of control and 100 % of control and the T/C (dose: 1000.0 mg/kg/injection, schedule: Q01DX Z (sc), vehicle: steriod suspending solution) was 101 % of control.

For `COc1cc(-c2ccc(Nc3ccccc3C(=O)O)c(OC)c2)ccc1Nc1ccccc1C(=O)O`, the T/C [6] was 116 % of control, the T/C [3] was 155 % of control and the T/C [1] was 161 % of control.

`Clc1ccc(C(c2ccccc2Cl)C(Cl)Cl)cc1` (stereo not drawn) was tested, and the T/C (dose: 25.0 mg/kg/injection, schedule: Q01DX Z (sc), vehicle: steriod suspending solution) was 100 % of control, the T/C (dose: 50.0 mg/kg/injection, schedule: Q01DX Z (sc), vehicle: steriod suspending solution) was 122 % of control and the T/C (dose: 100.0 mg/kg/injection, schedule: Q01DX Z (sc), vehicle: steriod suspending solution) was 107 % of control. The T/C (dose: 200.0 mg/kg/injection, schedule: Q01DX Z (sc), vehicle: steriod suspending solution) was 86 % of control and 100 % of control and the T/C (dose: 400.0 mg/kg/injection, schedule: Q01DX Z (sc), vehicle: steriod suspending solution) was 101 % of control.

`C[C@H]1C(=O)O[C@@H]2CCN3CC=C(COC(=O)[C@](C)(O)[C@@]1(C)O)[C@H]23` was tested, and the T/C (dose: 0.99 mg/kg/injection, schedule: Q01DX Z (ip), vehicle: carboxymethylcellulose (CMC)) was 97 % of control, the T/C (dose: 1.88 mg/kg/injection, schedule: Q01DX Z (ip), vehicle: carboxymethylcellulose (CMC)) was 94 % of control and the T/C (dose: 3.13 mg/kg/injection, schedule: Q01DX010 (ip), vehicle: saline) was 100 % of control. The T/C (dose: 3.75 mg/kg/injection, schedule: Q01DX Z (ip), vehicle: carboxymethylcellulose (CMC)) was 90 % of control, the T/C (dose: 6.25 mg/kg/injection, schedule: Q01DX010 (ip), vehicle: saline) was 100 % of control and the T/C (dose: 12.5 mg/kg/injection, schedule: Q01DX010 (ip), vehicle: saline) was 121 % of control and 87 % of control. The T/C [6] was 115 % of control and 100 % of control and the T/C (dose: 50.0 mg/kg/injection, schedule: Q01DX010 (ip), vehicle: saline) was 94 % of control.

In the case of `C[C@]12CC[C@H](OC3OC(CO)C(O)C(O)C3O)C[C@H]1CC[C@@H]1[C@@H]2CC[C@]2(C)[C@@H](C3=CCOC3=O)CC[C@]12O` (stereo partly drawn), the T/C (dose: 0.12 mg/kg/injection, schedule: Q01DX Z (ip), vehicle: saline) is reported as 97 % of control, the T/C (dose: 0.25 mg/kg/injection, schedule: Q01DX Z (ip), vehicle: saline) is reported as 97 % of control and the T/C (dose: 0.5 mg/kg/injection, schedule: Q01DX Z (ip), vehicle: saline) is reported as 101 % of control and 98 % of control. The T/C (dose: 1.0 mg/kg/injection, schedule: Q01DX Z (ip), vehicle: saline) was 104 % of control and 110 % of control, the T/C (dose: 2.0 mg/kg/injection, schedule: Q01DX Z (ip), vehicle: saline) was 105 % of control and 107 % of control and the T/C (dose: 4.0 mg/kg/injection, schedule: Q01DX Z (ip), vehicle: saline) was 121 % of control and 94 % of control.

`OCC1OC(n2cnc3c(Cl)ncnc32)C(O)C1O` (stereo not drawn) was tested, and the T/C (dose: 62.5 mg/kg/injection, schedule: Q01DX Z (ip), vehicle: carboxymethylcellulose (CMC)) was 104 % of control, the T/C (dose: 125.0 mg/kg/injection, schedule: Q01DX Z (ip), vehicle: carboxymethylcellulose (CMC)) was 101 % of control and the T/C (dose: 250.0 mg/kg/injection, schedule: Q01DX Z (ip), vehicle: carboxymethylcellulose (CMC)) was 92 % of control. For the same compound, the T/C (dose: 500.0 mg/kg/injection, schedule: Q01DX Z (ip), vehicle: carboxymethylcellulose (CMC)) was 106 % of control.

For `CN1CC[C@]23c4c5ccc(O)c4O[C@H]2C(=O)CC[C@H]3[C@H]1C5`, the T/C (dose: 0.5 mg/kg/injection, schedule: Q01DX010 (ip), vehicle: saline) was 106 % of control, the T/C (dose: 1.0 mg/kg/injection, schedule: Q01DX010 (ip), vehicle: saline) was 118 % of control and the T/C (dose: 2.0 mg/kg/injection, schedule: Q01DX010 (ip), vehicle: saline) was 106 % of control. The T/C (dose: 4.0 mg/kg/injection, schedule: Q01DX010 (ip), vehicle: saline) was 100 % of control.

For `CC1CCOS(=O)O1` (stereo not drawn), the T/C [7] was 88 % of control, the T/C [8] was 100 % of control and the T/C (dose: 40.0 mg/kg/injection, schedule: Q01DX010 (ip), vehicle: saline) was 100 % of control.

With `S=P(N1CCOCC1)(N1CC1)N1CC1` the T/C (dose: 3.1 mg/kg/injection, schedule: Q01DX Z (ip), vehicle: carboxymethylcellulose (CMC)) was 92 % of control, the T/C (dose: 6.25 mg/kg/injection, schedule: Q01DX Z (ip), vehicle: carboxymethylcellulose (CMC)) was 119 % of control and the T/C [7] was 95 % of control. For the same compound, the T/C (dose: 12.5 mg/kg/injection, schedule: Q01DX Z (ip), vehicle: carboxymethylcellulose (CMC)) was 90 % of control, the T/C [8] was 95 % of control and the T/C (dose: 25.0 mg/kg/injection, schedule: Q01DX Z (ip), vehicle: carboxymethylcellulose (CMC)) was 86 % of control.
